Source: patent US20230302073A1, “BOTANICAL EXTRACTION” (Performance Labs Pte. Ltd., priority 2022, published 2023)
Values after ≈ are worked out from the molar mass of the structure shown.

Experiments:
[1] = DPPH radical scavenging (antioxidant) assay; assay type: biochemical; conditions: for IC50: DPPH, reference standards and yerba mate extracts by solvent (Table 10)
Method: The free radical scavenging activity of all the extracts was evaluated by 1,1-diphenyl-2-picryl-hydrazyl (DPPH) according to a previously reported method (Shen et al., 2010).
Thirty mg of dried extract of each sample was diluted in 10 ml of methanol, obtaining a concentration of 3 mg/mL as stock solution. From this stock solution were obtained the concentrations of 1.5, 0.75; 0.375; 0.1875; 0.09375; 0.046875; 0.0234275; and 0.01171825 mg/mL. Ascorbic acid, rutin, chlorogenic acid as pure reference standards were used as a positive control and dissolved in methanol to make the stock solution with the same concentration of extract solution.
DPPH (7.89 mg) was weighed on a chemical balance with a minimum weighing limit of 10 μg or smaller. Thereafter, it was dissolved in HPLC grade methanol to obtain a constant volume by filling 100 ml of a measuring flask (0.2 mM DPPH). Then further dilute this solution to 0.1 mM. The absorbance of a DPPH solution is empirically known to decrease with time until approximately 1 hr after preparation. Therefore, it was kept in dark for 2 hr until the absorbance stabilized.
The DPPH solution was stored in the dark at room temperature during the assay, and used up on the day of the preparation. 0.3 mL of each sample concentration and positive control was added to 2.7 mL of 0.1 mM DPPH solution. Reaction occurred inside tubes covered with aluminum paper, in a dark environment at 25° C. The mixtures were shaken vigorously and allowed to stand at room temperature for 30 minutes. Then the absorbance was measured at 517 nm using a microplate reader (Varioskan LUX, ThermoFisher). Control sample was prepared containing the same volume without any extract and reference ascorbic acid; methanol was used as blank and % scavenging of the DPPH free radical was measured using the following equation:
DPPH scavenging effect (% inhibition)={(Ac−As)/Ac)*100}
Where, Ac=absorbance of DPPH alone, As=absorbance of DPPH along with different concentrations of extracts.
The measurements were done at eight points of concentration. The measurement for and analytical sample solution at each concentration was repeated three times.
The IC50 of each analytical sample was calculated according to the following procedure: Inhibition ratio were plotted against the sample concentrations at all six points and the respective regression line (y=ax+b) was drawn. The regression line was not required to pass through the origin. In this step, we verified that all of the measurement points were on the regression line. […] When Y in the regression equation was substituted with 50, X (sample concentration) was calculated.
This value was obtained from the results of calculations using linear regression analysis. […]

[2] = adults; cited from earlier work
[3] = in choline chloride and glycerol; cited from earlier work

Row | Structure (SMILES) | IC50 [1] [µg/mL] | further results
1 | O=C(/C=C/c1ccc(O)c(O)c1)O[C@@H]1CC(O)(C(=O)O)C[C@@H](OC(=O)/C=C/c2ccc(O)c(O)c2)C1O (stereo partly drawn) [3,5-diCQA, 3,5-dicaffeoylquinic acid] | 185.68 (≈ 360 µM) | –
2 | O=C(/C=C/c1ccc(O)c(O)c1)O[C@H]1[C@H](O)C[C@](O)(C(=O)O)C[C@H]1OC(=O)/C=C/c1ccc(O)c(O)c1 [4,5-diCQA, 4,5-dicaffeoylquinic acid] | 199.68 (≈ 387 µM) | –
3 | O=C1O[C@H]([C@@H](O)CO)C(O)=C1O [ascorbic acid] | 446.70 (≈ 2540 µM) | –
4 | Cn1c(=O)c2c(ncn2C)n(C)c1=O [caffeine, 1,3,7-trimethylxanthine] | – | contribution to the extract's antioxidant property ([1]; correlation of DPPH IC50 with total CQAs, with or without caffeine): no contribution
5 | C[N+](C)(C)CCO [choline] | – | daily upper limit, highest level of intake unlikely to cause harm [2]: 3,500 mg/day
6 | Cn1cnc2c1c(=O)[nH]c(=O)n2C [theobromine, 3,7-dimethylxanthine] | – | solubility relative to water [3]: ~32 times
